Measurements: ChEMBL document CHEMBL4507268 (2021)

Columns and labels:
[1] = target: T1, Testis-specific serine/threonine-protein kinase 3 (Homo sapiens) (UniProt Q96PN8); settings: Compound concentration 1000.0 nM
T1 sequence (whole entry): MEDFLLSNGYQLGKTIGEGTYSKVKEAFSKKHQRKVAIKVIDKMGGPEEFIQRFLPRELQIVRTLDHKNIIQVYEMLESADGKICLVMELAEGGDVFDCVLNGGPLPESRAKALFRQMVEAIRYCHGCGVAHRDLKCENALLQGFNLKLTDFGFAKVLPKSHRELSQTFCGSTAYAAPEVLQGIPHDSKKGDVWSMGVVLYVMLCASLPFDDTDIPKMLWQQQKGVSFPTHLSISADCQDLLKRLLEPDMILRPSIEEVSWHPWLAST

[2] = target: Serine/threonine-protein kinase RIO2 (Homo sapiens) (UniProt Q9BVS4); settings: Compound concentration 1000.0 nM
[3] = system: Fibroblast growth factor receptor 3 (Homo sapiens), P22607 [G697C]; settings: Compound concentration 1000.0 nM
[4] = target: Mitogen-activated protein kinase 14 (Homo sapiens) (UniProt Q16539); settings: Compound concentration 1000.0 nM
[5] = target: T2, Serine/threonine-protein kinase ICK (Homo sapiens) (UniProt Q9UPZ9); settings: Compound concentration 1000.0 nM
T2 sequence (whole entry): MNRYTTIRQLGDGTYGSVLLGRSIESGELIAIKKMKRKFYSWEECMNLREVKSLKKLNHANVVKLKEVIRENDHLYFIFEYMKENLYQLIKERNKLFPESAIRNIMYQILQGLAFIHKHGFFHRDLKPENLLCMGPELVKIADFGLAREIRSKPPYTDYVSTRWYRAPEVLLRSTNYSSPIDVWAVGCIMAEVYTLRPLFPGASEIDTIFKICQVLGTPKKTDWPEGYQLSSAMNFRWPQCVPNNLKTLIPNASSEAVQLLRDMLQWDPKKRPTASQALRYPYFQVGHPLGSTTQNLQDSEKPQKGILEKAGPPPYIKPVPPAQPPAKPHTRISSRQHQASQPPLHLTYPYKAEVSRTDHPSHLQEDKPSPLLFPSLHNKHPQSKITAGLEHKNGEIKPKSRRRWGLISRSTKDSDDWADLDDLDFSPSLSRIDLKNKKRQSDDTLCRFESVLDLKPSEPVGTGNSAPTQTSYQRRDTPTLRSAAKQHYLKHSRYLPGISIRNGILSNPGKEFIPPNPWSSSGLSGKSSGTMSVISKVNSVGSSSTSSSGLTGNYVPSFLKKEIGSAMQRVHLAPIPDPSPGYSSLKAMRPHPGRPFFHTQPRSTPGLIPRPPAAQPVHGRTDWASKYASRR

[6] = system: Receptor-type tyrosine-protein kinase FLT3 (Homo sapiens), P36888 [N841I]; settings: Compound concentration 1000.0 nM
[7] = target: Mitogen-activated protein kinase kinase kinase kinase 1 (Homo sapiens) (UniProt Q92918); settings: Compound concentration 1000.0 nM
[8] = target: Tyrosine-protein kinase JAK2 (Homo sapiens) (UniProt O60674); settings: Compound concentration 1000.0 nM
[9] = target: Casein kinase I isoform gamma-3 (Homo sapiens) (UniProt Q9Y6M4); settings: Compound concentration 1.0 uM
[10] = target: Serine/threonine-protein kinase MARK1 (Homo sapiens) (UniProt Q9P0L2); settings: Compound concentration 1.0 uM
[11] = target: Tyrosine-protein kinase FRK (Homo sapiens) (UniProt P42685); settings: Compound concentration 1.0 uM
[12] = target: Tyrosine-protein kinase CSK (Homo sapiens) (UniProt P41240); settings: Compound concentration 1.0 uM
[13] = target: Serine/threonine-protein kinase/endoribonuclease IRE1 (Homo sapiens) (UniProt O75460); settings: Compound concentration 1.0 uM
[14] = target: Serine/threonine-protein kinase PAK 1 (Homo sapiens) (UniProt Q13153); settings: Compound concentration 1.0 uM
[15] = target: Protein kinase C beta type (Homo sapiens) (UniProt P05771); settings: Compound concentration 1.0 uM
[16] = target: T3, Dual specificity mitogen-activated protein kinase kinase 7 (Homo sapiens) (UniProt O14733); settings: Compound concentration 1.0 uM
T3 sequence (whole entry): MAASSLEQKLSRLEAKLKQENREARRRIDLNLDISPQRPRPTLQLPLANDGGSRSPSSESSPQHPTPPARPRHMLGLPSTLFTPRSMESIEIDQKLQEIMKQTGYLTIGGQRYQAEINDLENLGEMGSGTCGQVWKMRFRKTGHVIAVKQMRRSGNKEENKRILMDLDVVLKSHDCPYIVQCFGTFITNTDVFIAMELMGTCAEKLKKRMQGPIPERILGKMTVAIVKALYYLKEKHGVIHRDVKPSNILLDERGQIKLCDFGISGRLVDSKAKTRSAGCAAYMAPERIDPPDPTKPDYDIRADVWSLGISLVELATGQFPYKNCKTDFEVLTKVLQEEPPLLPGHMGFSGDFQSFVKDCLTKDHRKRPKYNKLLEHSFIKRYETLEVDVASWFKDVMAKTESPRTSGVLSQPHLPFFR

[17] = target: Serine/threonine-protein kinase Nek7 (Homo sapiens) (UniProt Q8TDX7); settings: Compound concentration 1.0 uM
[18] = target: [Pyruvate dehydrogenase (acetyl-transferring)] kinase isozyme 4, mitochondrial (Homo sapiens) (UniProt Q16654); settings: Compound concentration 1.0 uM
[19] = target: T4, Serine/threonine-protein kinase 17A (Homo sapiens) (UniProt Q9UEE5); settings: Compound concentration 1.0 uM
T4 sequence (whole entry): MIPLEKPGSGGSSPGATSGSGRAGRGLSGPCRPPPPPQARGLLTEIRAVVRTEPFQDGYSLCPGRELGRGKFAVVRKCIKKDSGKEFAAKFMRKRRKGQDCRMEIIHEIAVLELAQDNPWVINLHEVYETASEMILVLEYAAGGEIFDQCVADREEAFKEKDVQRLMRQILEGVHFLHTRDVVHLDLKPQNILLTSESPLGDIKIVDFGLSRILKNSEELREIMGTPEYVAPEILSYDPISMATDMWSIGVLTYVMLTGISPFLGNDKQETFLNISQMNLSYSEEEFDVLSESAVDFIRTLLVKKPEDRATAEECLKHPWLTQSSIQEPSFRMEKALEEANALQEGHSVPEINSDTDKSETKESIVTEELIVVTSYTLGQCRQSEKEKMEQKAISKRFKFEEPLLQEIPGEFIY

Chain of Fibroblast growth factor receptor 3 (Homo sapiens), P22607 [G697C] (P22607 whole entry G697C): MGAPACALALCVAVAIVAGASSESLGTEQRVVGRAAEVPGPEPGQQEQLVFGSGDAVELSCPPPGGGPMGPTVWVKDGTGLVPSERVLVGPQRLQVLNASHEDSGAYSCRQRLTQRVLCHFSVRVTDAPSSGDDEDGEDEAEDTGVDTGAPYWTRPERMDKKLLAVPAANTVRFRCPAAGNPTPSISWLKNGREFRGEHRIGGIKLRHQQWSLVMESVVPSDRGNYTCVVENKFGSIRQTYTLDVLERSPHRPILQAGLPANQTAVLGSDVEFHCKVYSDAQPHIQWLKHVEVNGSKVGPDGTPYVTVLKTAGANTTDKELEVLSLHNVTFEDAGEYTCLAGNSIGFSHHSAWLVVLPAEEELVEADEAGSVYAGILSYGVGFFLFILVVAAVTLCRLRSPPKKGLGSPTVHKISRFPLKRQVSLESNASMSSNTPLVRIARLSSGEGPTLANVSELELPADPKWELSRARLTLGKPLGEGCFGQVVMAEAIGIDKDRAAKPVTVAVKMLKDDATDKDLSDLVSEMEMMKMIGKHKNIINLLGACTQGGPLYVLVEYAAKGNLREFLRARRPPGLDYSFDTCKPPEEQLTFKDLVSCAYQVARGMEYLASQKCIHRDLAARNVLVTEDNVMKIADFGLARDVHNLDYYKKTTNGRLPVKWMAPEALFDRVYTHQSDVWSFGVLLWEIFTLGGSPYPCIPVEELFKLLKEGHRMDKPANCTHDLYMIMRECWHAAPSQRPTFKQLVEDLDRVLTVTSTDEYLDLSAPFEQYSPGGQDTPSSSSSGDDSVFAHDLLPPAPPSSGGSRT
Chain of Tyrosine-protein kinase JAK2 (Homo sapiens) (O60674 whole entry, canonical isoform): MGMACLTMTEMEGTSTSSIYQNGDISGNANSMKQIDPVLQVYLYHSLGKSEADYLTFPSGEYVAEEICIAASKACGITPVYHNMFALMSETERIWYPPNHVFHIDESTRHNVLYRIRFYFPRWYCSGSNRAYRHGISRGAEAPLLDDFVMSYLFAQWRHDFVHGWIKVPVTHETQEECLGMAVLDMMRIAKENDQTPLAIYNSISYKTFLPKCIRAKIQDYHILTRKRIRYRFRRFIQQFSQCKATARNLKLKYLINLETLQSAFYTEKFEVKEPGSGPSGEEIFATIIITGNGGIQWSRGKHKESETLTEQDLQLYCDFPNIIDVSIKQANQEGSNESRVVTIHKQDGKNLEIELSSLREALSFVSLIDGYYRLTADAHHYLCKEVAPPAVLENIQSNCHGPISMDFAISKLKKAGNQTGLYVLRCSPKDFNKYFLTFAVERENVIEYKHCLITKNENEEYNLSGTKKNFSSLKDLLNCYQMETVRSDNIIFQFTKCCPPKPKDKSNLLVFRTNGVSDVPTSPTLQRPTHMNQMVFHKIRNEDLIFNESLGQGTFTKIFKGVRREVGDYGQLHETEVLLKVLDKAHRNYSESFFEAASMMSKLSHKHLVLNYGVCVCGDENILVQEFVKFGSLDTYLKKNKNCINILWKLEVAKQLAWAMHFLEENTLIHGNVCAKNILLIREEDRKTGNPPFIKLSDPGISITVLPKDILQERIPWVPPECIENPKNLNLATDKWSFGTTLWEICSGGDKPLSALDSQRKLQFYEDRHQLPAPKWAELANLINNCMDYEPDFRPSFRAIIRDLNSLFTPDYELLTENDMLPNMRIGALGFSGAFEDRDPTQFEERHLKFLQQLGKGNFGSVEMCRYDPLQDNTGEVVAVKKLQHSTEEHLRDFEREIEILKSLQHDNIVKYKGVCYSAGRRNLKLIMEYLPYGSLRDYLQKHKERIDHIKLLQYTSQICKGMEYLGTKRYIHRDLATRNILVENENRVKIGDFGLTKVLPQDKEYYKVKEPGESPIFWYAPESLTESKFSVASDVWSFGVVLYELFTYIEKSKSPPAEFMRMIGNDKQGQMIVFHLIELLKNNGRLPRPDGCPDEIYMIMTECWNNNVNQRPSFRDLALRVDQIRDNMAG
Chain of Mitogen-activated protein kinase kinase kinase kinase 1 (Homo sapiens) (Q92918 whole entry, looked up): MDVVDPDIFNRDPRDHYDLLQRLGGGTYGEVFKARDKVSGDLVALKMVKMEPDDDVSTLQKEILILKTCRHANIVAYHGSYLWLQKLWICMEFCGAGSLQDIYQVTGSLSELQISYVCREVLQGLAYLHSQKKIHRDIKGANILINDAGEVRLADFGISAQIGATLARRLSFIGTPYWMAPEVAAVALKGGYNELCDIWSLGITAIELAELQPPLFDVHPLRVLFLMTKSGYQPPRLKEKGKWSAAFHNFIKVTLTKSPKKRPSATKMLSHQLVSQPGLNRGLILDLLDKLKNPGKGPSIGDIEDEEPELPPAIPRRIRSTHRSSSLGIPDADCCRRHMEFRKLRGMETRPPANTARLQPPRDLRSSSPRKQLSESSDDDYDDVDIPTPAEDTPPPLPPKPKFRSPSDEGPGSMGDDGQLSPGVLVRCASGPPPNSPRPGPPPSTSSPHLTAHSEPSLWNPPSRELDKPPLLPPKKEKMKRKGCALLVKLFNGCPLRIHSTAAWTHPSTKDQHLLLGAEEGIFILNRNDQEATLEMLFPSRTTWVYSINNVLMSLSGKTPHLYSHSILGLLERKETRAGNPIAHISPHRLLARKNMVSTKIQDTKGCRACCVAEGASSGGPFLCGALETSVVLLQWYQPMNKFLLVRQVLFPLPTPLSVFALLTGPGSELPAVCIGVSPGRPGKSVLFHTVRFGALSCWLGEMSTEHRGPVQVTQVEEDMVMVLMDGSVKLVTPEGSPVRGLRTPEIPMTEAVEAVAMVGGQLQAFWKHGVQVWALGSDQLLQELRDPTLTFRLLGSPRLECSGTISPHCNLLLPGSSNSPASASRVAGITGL
Chain of Serine/threonine-protein kinase RIO2 (Homo sapiens) (Q9BVS4 whole entry, looked up): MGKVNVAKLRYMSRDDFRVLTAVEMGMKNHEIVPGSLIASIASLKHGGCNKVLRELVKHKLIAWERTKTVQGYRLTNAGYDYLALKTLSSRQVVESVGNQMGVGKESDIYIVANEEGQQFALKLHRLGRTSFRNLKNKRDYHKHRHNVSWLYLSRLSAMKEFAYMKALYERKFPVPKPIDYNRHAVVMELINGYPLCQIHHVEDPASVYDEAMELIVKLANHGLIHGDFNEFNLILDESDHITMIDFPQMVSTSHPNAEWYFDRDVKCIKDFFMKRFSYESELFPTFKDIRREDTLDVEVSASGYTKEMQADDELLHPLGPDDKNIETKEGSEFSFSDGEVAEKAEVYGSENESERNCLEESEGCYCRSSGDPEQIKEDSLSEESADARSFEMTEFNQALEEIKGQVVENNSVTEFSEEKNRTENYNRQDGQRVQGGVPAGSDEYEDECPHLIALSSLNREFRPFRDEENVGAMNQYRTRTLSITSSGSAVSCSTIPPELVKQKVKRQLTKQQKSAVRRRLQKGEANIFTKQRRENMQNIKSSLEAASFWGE
Chain of Mitogen-activated protein kinase 14 (Homo sapiens) (Q16539 whole entry): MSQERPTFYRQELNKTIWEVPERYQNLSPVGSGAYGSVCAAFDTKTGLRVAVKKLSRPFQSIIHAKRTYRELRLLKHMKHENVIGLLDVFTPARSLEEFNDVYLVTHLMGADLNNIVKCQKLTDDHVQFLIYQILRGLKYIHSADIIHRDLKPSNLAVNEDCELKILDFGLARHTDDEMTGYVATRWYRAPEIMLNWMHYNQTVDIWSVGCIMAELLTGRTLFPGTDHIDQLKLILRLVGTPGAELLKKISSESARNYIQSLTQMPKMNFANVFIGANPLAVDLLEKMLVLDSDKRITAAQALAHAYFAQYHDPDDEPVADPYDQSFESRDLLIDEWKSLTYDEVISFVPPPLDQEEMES
Chain of Tyrosine-protein kinase FRK (Homo sapiens) (P42685 whole entry): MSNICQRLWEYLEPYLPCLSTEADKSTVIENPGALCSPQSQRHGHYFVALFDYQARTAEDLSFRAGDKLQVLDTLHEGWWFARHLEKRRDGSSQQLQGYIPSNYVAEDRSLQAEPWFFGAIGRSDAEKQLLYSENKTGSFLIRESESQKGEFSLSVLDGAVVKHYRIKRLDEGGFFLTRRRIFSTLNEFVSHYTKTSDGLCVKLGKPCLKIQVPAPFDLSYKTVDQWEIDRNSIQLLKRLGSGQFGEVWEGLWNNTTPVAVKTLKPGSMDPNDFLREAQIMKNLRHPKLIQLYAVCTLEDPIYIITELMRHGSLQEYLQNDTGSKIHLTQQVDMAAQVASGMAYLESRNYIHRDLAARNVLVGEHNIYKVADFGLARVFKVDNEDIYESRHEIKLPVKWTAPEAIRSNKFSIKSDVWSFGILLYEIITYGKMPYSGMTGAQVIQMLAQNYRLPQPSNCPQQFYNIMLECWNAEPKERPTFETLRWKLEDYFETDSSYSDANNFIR
Chain of Serine/threonine-protein kinase Nek7 (Homo sapiens) (Q8TDX7 whole entry, looked up): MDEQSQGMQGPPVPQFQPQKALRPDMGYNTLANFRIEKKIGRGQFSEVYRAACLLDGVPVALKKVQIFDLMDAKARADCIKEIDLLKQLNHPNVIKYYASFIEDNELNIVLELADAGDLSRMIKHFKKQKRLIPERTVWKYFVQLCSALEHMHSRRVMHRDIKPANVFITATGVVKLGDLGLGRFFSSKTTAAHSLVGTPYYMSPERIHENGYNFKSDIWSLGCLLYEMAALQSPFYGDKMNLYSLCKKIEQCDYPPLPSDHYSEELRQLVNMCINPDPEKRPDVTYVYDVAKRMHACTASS
Chain of Casein kinase I isoform gamma-3 (Homo sapiens) (Q9Y6M4 whole entry, looked up, canonical isoform): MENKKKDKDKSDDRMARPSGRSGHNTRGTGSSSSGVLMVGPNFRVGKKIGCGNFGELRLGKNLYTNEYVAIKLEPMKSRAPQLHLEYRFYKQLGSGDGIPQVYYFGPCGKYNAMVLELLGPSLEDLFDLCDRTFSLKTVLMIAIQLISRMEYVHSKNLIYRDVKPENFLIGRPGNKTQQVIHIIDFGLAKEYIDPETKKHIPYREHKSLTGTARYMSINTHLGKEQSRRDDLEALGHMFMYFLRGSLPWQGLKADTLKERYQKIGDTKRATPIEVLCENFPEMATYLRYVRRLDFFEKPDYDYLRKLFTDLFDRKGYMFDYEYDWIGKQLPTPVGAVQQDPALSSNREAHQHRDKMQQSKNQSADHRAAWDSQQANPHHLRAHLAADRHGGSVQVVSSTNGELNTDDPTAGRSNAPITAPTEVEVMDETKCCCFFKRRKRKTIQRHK

Cc1nc(C2CCN(C(=O)c3ccc(OC(F)(F)F)cc3N)CC2)c2ncc(N3CCN(C)CC3)cc2n1 [BAY-693]
inactive: residual activity [1] 100% | residual activity [2] 100% | residual activity [3] 100% | residual activity [4] 100% | residual activity [5] 84% | residual activity [6] 100% | residual activity [7] 96% | residual activity [8] 99%

CN1CCN(c2cnc3c(C4CCN(C(=O)c5ccc(OC(F)(F)F)cc5N)CC4)ncnc3c2)CC1 [BAY-885]
inactive: residual activity [1] 68% | residual activity [2] 100% | % residual kinase activity [9] 96% | % residual kinase activity [10] 112% | % residual kinase activity [11] 109% | residual activity [3] 100% | % residual kinase activity [12] 102% | % residual kinase activity [13] 110% | % residual kinase activity [14] 95% | % residual kinase activity [15] 110% | residual activity [4] 99% | % residual kinase activity [16] 106% | residual activity [5] 100% | residual activity [6] 100% | % residual kinase activity [17] 106% | % residual kinase activity [18] 104% | residual activity [7] 88% | residual activity [8] 83% | % residual kinase activity [19] 85%
